Data set [1] has as its system barnyardgrass (Echinochloa crus-galli). Kind of data set: Test A preemergence, barnyardgrass. It is filed as in vivo. The note with it: Echinochloa crus-galli, pre-emergence, 240 h; Preemergence, 1000 g ai/ha; 0 to 100 scale (0 no effect, 100 complete control); read-out: Plant response rating, Barnyardgrass. A digest of the protocol:
(§1)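 Compounds in non-phytotoxic solvent with surfactant. Soil: loam/sand. Preemergence via directed soil spray after seeding; postemergence on seedlings 2–10 cm, one- to two-leaf.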

For data set [2], the system named is kochia (Bassia scoparia). Kind of data set: Test A preemergence, kochia. The format is in vivo. Conditions: Bassia scoparia, pre-emergence, 240 h; Preemergence, 1000 g ai/ha; 0 to 100 scale (0 no effect, 100 complete control); read-out: Plant response rating, Kochia. A digest of the protocol: as §1
Data set [3] deals with ragweed (common ragweed, Ambrosia artemisiifolia). Kind of data set: Test A preemergence, ragweed. It is filed as in vivo. The note with it: Ambrosia artemisiifolia, pre-emergence, 240 h; Preemergence, 1000 g ai/ha; 0 to 100 scale (0 no effect, 100 complete control); read-out: Plant response rating, Ragweed. In a few lines:
as §1

The test system of data set [4] is Ryegrass, Italian (Italian ryegrass, Lolium multiflorum). Kind of data set: Test A preemergence, Ryegrass, Italian. The format is in vivo. Conditions: Lolium multiflorum, pre-emergence, 240 h; Preemergence, 1000 g ai/ha; 0 to 100 scale (0 no effect, 100 complete control); read-out: Plant response rating, Ryegrass, Italian. A digest of the protocol:
as §1

Data set [5] deals with Foxtail, Giant (giant foxtail, Setaria faberi). Kind of data set: Test A preemergence, Foxtail, Giant. Conditions: Setaria faberi, pre-emergence, 240 h; Preemergence, 1000 g ai/ha; 0 to 100 scale (0 no effect, 100 complete control); read-out: Plant response rating, Foxtail, Giant. It is filed as in vivo. A digest of the protocol:
as §1

Data set [6] relates to pigweed (Amaranthus retroflexus). Kind of data set: Test A preemergence, pigweed. It is filed as in vivo. The note with it: Amaranthus retroflexus, pre-emergence, 240 h, 1000 g ai/ha, 0 to 100 scale (0 no effect, 100 complete control), read-out: Plant response rating, Pigweed. In a few lines: (§2)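 Preemergence: pigweed seeds in loam soil–sand blend received a directed soil spray of test chemicals in a non-phytotoxic solvent with surfactant. Postemergence: barnyardgrass, wheat and galium in pots of the same soil, 2 to 10 cm tall at one- to two-leaf stage, sprayed with the same formulation.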

In data set [7] the test system is barnyardgrass (Echinochloa crus-galli). Kind of data set: Test A postemergence, barnyardgrass. It is filed as in vivo. Conditions: Echinochloa crus-galli, post-emergence, 240 h; Postemergence, 1000 g ai/ha; visual injury, 0 to 100 scale (0 no effect, 100 complete control), approx. 10 days; read-out: Plant response rating, Barnyardgrass. A digest of the protocol:
as §2

Data set [8] concerns kochia (Bassia scoparia). As to the kind of experiment: Test A postemergence, kochia. The format is in vivo. The note with it: Bassia scoparia, post-emergence, 240 h; Postemergence, 1000 g ai/ha; visual injury, 0 to 100 scale (0 no effect, 100 complete control), approx. 10 days; read-out: Plant response rating, Kochia. In a few lines:
as §1

For data set [9], the system named is ragweed (common ragweed, Ambrosia artemisiifolia). As to the kind of experiment: Test A postemergence, ragweed. The note with it: Ambrosia artemisiifolia, post-emergence, 240 h; Postemergence, 1000 g ai/ha; visual injury, 0 to 100 scale (0 no effect, 100 complete control), approx. 10 days; read-out: Plant response rating, Ragweed. The format is in vivo. In a few lines: as §1

Data set [10] has as its system Ryegrass, Italian (Italian ryegrass, Lolium multiflorum). As to the kind of experiment: Test A postemergence, Ryegrass, Italian. The format is in vivo. The note with it: Lolium multiflorum, post-emergence, 240 h; Postemergence, 1000 g ai/ha; visual injury, 0 to 100 scale (0 no effect, 100 complete control), approx. 10 days; read-out: Plant response rating, Ryegrass, Italian. In a few lines:
as §1

Data set [11] relates to Foxtail, Giant (giant foxtail, Setaria faberi). As to the kind of experiment: Test A postemergence, Foxtail, Giant. It is filed as in vivo. Conditions: Setaria faberi, post-emergence, 240 h; Postemergence, 1000 g ai/ha; visual injury, 0 to 100 scale (0 no effect, 100 complete control), approx. 10 days; read-out: Plant response rating, Foxtail, Giant. In a few lines:
as §1

Data set [12] concerns pigweed (Amaranthus retroflexus). Kind of data set: Test A postemergence, pigweed. The format is in vivo. Conditions: Amaranthus retroflexus, post-emergence, 240 h; Postemergence, 1000 g ai/ha; visual injury, 0 to 100 scale (0 no effect, 100 complete control), approx. 10 days; read-out: Plant response rating, Pigweed. A digest of the protocol:
as §1

In data set [13] the test system is wheat (Triticum aestivum). Kind of data set: Test A postemergence, wheat. The format is in vivo. Conditions: Triticum aestivum, post-emergence, 240 h; Postemergence, 1000 g ai/ha; visual injury, 0 to 100 scale (0 no effect, 100 complete control), approx. 10 days; read-out: Plant response rating, Wheat. In a few lines:
as §2

Data set [14] concerns corn (Zea mays). Kind of data set: Test A postemergence, corn. The format is in vivo. The note with it: Zea mays, post-emergence, 240 h; Postemergence, 1000 g ai/ha; visual injury, 0 to 100 scale (0 no effect, 100 complete control), approx. 10 days. A digest of the protocol:
as §1

Data set [15] has as its system blackgrass (Alopecurus myosuroides). As to the kind of experiment: Test A postemergence, blackgrass. It is filed as in vivo. Conditions: Alopecurus myosuroides, post-emergence, 240 h; Postemergence, 1000 g ai/ha; visual injury, 0 to 100 scale (0 no effect, 100 complete control), approx. 10 days; read-out: Plant response rating, Blackgrass. In a few lines:
as §1

For data set [16], the system named is galium (catchweed bedstraw, Galium aparine). As to the kind of experiment: Test A postemergence, galium. It is filed as in vivo. Conditions: Galium, post-emergence, 240 h; Postemergence, 1000 g ai/ha; visual injury, 0 to 100 scale (0 no effect, 100 complete control), approx. 10 days; read-out: Plant response rating, Galium. In a few lines: as §2
Data set [17] concerns rice (Oryza sativa). As to the kind of experiment: Test B flooded paddy test, rice. Conditions: 336 h, read-out: Plant response rating, Rice.
The subject of data set [18] is ducksalad (Heteranthera limosa). As to the kind of experiment: Test B flooded paddy test, ducksalad. The note with it: 336 h, read-out: Plant response rating, Ducksalad.
Data set [19] has as its system barnyardgrass (Echinochloa crus-galli). Kind of data set: Test B flooded paddy test, barnyardgrass. Conditions: 336 h, read-out: Plant response rating, Barnyardgrass.

Molecules are shown by their SMILES.

In the case of `Cc1cc(C)c(C(=O)N2CCCCC2)cc1NS(=O)(=O)C(F)(F)F` [Compound 260, N-[2,4-Dimethyl-5-(1-piperidinylcarbonyl)phenyl]-1,1,1-trifluoromethanesulfonamide], the melting point (usually the temperature, or range, at which the solid turns liquid) was in the range of 262 to 266 °C. For the same compound, the pest or weed control at 1000 g/ha in [1] was found to be 100%. For the same compound, the pest or weed control at 1000 g/ha in data set [2] came out at 40%. The pest or weed control at 1000 g/ha in [3] came out at 90%. Further, the pest or weed control at 1000 g/ha in [4] was found to be 100%. Moreover, the pest or weed control at 1000 g/ha in [5] came out at 100%. For the same compound, the pest or weed control at 1000 g/ha in data set [6] was found to be 100%. Moreover, the pest or weed control at 1000 g/ha in [7] amounted to 90%. In addition, the pest or weed control at 1000 g/ha in data set [8] was determined as 0%. Moreover, the pest or weed control at 1000 g/ha in data set [9] is 50%. For the same compound, in data set [10], the pest or weed control at 1000 g/ha is 60%. Moreover, the pest or weed control at 1000 g/ha in [11] was found to be 50%. The pest or weed control at 1000 g/ha in data set [12] was 80%. The plant injury at 1000 g/ha in data set [13] was 60%. The Corn plant response rating (crop injury, 0 = no effect, 100 = complete kill) at 1000 g/ha in data set [14] amounted to 10%. Besides, the pest or weed control at 1000 g/ha in data set [15] came to 50%. In addition, in data set [16], the pest or weed control at 1000 g/ha is 70%. Also, the plant injury at 250 g/ha in data set [17] amounted to 0%. Also, in [18], the pest or weed control at 250 g/ha was 80%. Besides, the pest or weed control at 250 g/ha in data set [19] worked out at 0%.
